The results in this text go back to publication PMC8466613, “Cocaine Detection by a Laser-Induced Immunofluorometric Biosensor” (Biosensors, 2021).

The test system of this test is T1, monoclonal anti-benzoylecgonine/cocaine (BEC) antibody IP3G2.
T1 construct: monoclonal antibody, clone IP3G2, mouse, subtype IgG1
The test can be described thus: indirect competitive ELISA with chemiluminescence detection against BEC-BSA; also competitive immunofluorometric biosensor with Dy-654-labelled antibody. Type of test: binding, Mus musculus. In general terms: In an ELISA, binding on a coated surface is turned into a signal by an enzyme label.

Compound `COC(=O)[C@H]1[C@@H](OC(=O)c2ccccc2)C[C@@H]2CC[C@H]1N2C` [cocaine] returned an IC50 of around 0.75 nM.

Broadly, the IC50 is the concentration that gives 50% inhibition.
